US20080009546A1 (Chevron U.S.A. Inc., priority 2005, published 2008)
Where two headings read alike, the source gives them in different places.

How the values were obtained:
[1] = Dissolving compounds to make 10 mM stock solution; format: physicochemical; conditions: deionized water or assay friendly solvents, hot water
Protocol: Following assay establishment, the test compounds were tested for binding affinities. The concentrations selected for the experiments were chosen according to what was found for memantine in our assay. The first task was to dissolve the compounds and make up the 10 mM stock solution for further experiments. Those compounds that were made into salt format were easy to dissolve in deionized water, but the other compounds were difficult to bring into solution. Several “assay friendly” solvents have been tried, such as molecusol, acetic acid and propylene glycol followed by putting the vial into hot water.

[2] = system: primary neurons from rat cerebral cortex; experiment: NMDA-induced LDH release assay in primary cortical neurons (neuroprotection); format: cell-based
Protocol: The neuroprotective properties of drugs have been studied in vitro, using neurons cultured from cortex, cerebellum or retina. […] Neurotoxicity is determined in this assay by measuring lactate dehydrogenase (LDH), a method which is simple, accurate and reproducible. We conducted pilot studies to test if poly-lysine-coated plates would be suitable as a matrix upon which to plate fetal neurons, compared to astrocyte-coated plates. We also compared the use of growth medium to neurobasal medium supplemented with B27 in the pilot experiments. The concentrations of NMDA (300-500 μM), glycine (10-50 μM), and memantine (10-100 μM) were varied, and optimum concentrations and times determined from these pilot studies were then chosen for the main study. The assay is described below.
Fetal rat neocortical cells were cultured on a mouse astroglial feeder layer. To obtain mouse astroglial cells for the feeder layer, cortices were harvested from 1-day old Swiss Webster mice (Charles River, Hollister, Calif.) according to the procedure described by Rose et al (1993). After dissecting cortices in ice-cold dissecting medium, they were minced and incubated in 0.09% trypsin in media stock for 1 hr, followed by resuspension in growth medium containing 10% equine serum and 10% fetal bovine serum. A single-cell suspension was obtained by triturating through fire-bored glass pipettes, and the resulting cell suspension was plated at a density of 0.5-0.75 hemispheres/24-well plate/9.6 ml, with 0.4 ml/well. Plates were incubated in a humidified incubator at 37° C., 5% CO2. Astroglial cells become confluent in about 2-3 weeks, at which time these cultures are ready to be used as feeder layers upon which neuronal cultures can be plated. Neuronal cells were obtained from gestational Sprague-Dawley rats E16-E18, using a similar dissection procedure. Rat embryos were dissected to obtain cortical tissue, which was plated as a single-cell suspension at a density of 1.4 hemispheres/24-well plate/9.6 ml, with 0.4 ml/well. These cells were plated on the existing astroglial feeder layer, and were incubated at 37° C., 5% CO2. After 5 days in culture, cytosine arabinoside (10 μM) was added to the wells to inhibit glial cell proliferation, and after 24 hours, the medium was replaced with fresh growth medium. Cells were fed with fresh growth medium every 2 days, until the experiments were performed. For coating plates with poly-lysine, we used poly-d-lysine hydrobromide (Sigma Cat # P7280) at a concentration of 0.1 mg/ml to coat each well using a minimum volume of 0.2 ml/well. After coating for 5 minutes, the solution was aspirated and wells were rinsed thoroughly with sterile tissue culture grade water. After drying for 2 hours, plates were ready for use. Neuronal cultures were plated onto poly-lysine-coated plates at the same density as above. For the pilot study, some of the cultures were fed with 1:1 ratio of growth medium: neurobasal medium (GIBCO)+B-27 supplement (2%), while the rest of the cultures were fed with growth medium alone (Losi et al., 2006). For the main study, we used astroglial feeder layers to plate the neuronal cultures, and used a mix (1:1) of growth medium with neurobasal medium+B-27 supplement for feeding the cultures.
After 11-14 days in culture, neuronal cells were confluent and experiments were performed. Cells were washed twice using sterile Locke's buffer (154 mM NaCl, 5.6 mM KCl, 2.3 mM CaCl2, 3.6 mM NaHCO3, 5.5 mM D-glucose, 5 mM HEPES, pH 7.4), and then exposed to the various treatment compounds. […] After 15 minutes, cultures were washed twice and incubated overnight in media stock. After 24 hours, supernatants and lysates were collected to measure LDH activity. LDH activity was measured by the reduction of NAD, which was utilized in the stoichiometric conversion of a tetrazolium dye using a kit (Sigma TOX-7). Supernatants were removed from the wells and centrifuged before LDH measurements. The adherent cells were lysed to obtain total LDH. […]

C57/BL6 male mice [3] = experiment: Rotarod test (balance and coordination, side effects)
Protocol: The side effects of the compounds was primarily evaluated using the rotarod test, which mainly assesses the balancing and coordination of mice. The comparisons were made on fall time of the mice between the first measure (pre-treatment) and second measure taken 20 min after the drug/vehicle injection in the same group (paired t-test). […] Comparisons of the rotatod fall times after drug/vehicle dosing were made between drug treatment and control groups (unpaired t-test).

NMDA receptor = experiment: Whole-cell voltage-clamp recordings of NMDA evoked currents in hypocretin neurons (hypothalamic slices); format: cell-based, mouse; conditions: for inhibition of the peak amplitude of NMDA evoked currents: bath application, -60 mV, mean±SEM
C57/BL6 male mice [4] = conditions: for # of deaths / # of extensions: 6 mice; for MES-induced death: mice
C57/BL6 male mice [5] = experiment: Pentylenetetrazol (PTZ)-induced seizure/death model; format: in vivo, mouse; conditions: for # mice with L3 seizure / # mice with L4 seizure / # of deaths within 30 min: 6 mice; for # of deaths within 30 min / PTZ-induced death: PTZ 100 mg/kg; for Time to death: mice that died within 30 min
Protocol: Although the protection against death is the key endpoint, other effects of the compounds on PTZ-induced seizures were also assessed using multiple parameters. For the mice that did die within the 30 minute observation window, the time of death was also compared. […] The seizure occurrence rate, onset time and number of level 3 (L3) seizure (repetitive seizures but the animal can still stand) and level 4 (L4) seizure (repetitive seizures and the animal loses righting) are also analyzed. The MDT compound (30 mg/kg) treated groups show a certain degree of improvement compared to control. No data from MK801 or memantine were included because the seizures occurring under these treatments are totally different from the control or MDT injected groups due to side effects (“high jumping”).

[6] = NMDA 300 uM + MK801 1 uM, Plate #4, poly-lysine-coated rat neurons, GM/NB + B-27 fed, 24 hour incubation
[7] = NMDA 300 uM + MK801 1 uM, Plate #5, astrocyte-coated rat neurons, GM fed, 24 hour incubation
[8] = NMDA 300 uM + MK801 1 uM, astrocyte-coated rat neurons, GM/NB + B-27 fed, 24 hour incubation
[9] = NMDA 500 μM + MK801 1 μM, astrocyte-coated rat neurons, GM/NB + B-27 fed, 21 hour incubation
[10] = NMDA 500 uM + MK801 1 uM, poly-lysine-coated rat neurons, GM/NB + B-27 fed, 40 hour incubation

Structure (SMILES): O=C(O)C12CC3CC4C5CC(CC41)CC2C5C3 [MDT-17]
- dissolution for 10 mM stock solution [1]: did not go into solution, or came out with time

Structure (SMILES): CC12CC3(N)CC4C5CC(CC41)CC2C5C3 [MDT-22, 1-methyl-9-aminodiamantane]
- EC50 ([2]; Rattus norvegicus, Primary neuron, two experiments, 300 uM NMDA + 50 μM glycine 15 minutes, LDH after 24 hours, read-out: average EC50 (±SD), NMDA-induced LDH release): 56.5 ± 14.6 µM
- Fall Time (C57/BL6 male mice [3]; after, 20 min after 10 mg/kg i.p.): 44.58 ± 4.58 min
- Fall Time (C57/BL6 male mice [3]; after, 20 min after 30 mg/kg i.p.): 44.93 ± 5.45 min
- Fall Time (C57/BL6 male mice [3]; before (pre-treatment), 10 mg/kg group): 33.56 ± 3.91 min
- Fall Time (C57/BL6 male mice [3]; before (pre-treatment), 30 mg/kg group): 45.03 ± 6.02 min
- inhibition of the peak amplitude of NMDA evoked currents (NMDA receptor; 10 μM): 19±3.1%
- inhibition of the peak amplitude of NMDA evoked currents (NMDA receptor; 100 μM): 45±12.1%
- reversibility of inhibition of NMDA evoked currents upon washout (NMDA receptor; washout of the compound): reversible
- Extension rate (C57/BL6 male mice [4]; 10 mg/kg i.p.): 1.00
- Mortality rate (C57/BL6 male mice [4]; 10 mg/kg i.p.): 0.50
- # of deaths (C57/BL6 male mice [4]; 10 mg/kg i.p.): 3
- # of extensions (C57/BL6 male mice [4]; 10 mg/kg i.p.): 6
- Extension rate (C57/BL6 male mice [4]; 30 mg/kg i.p.): 0.83
- Mortality rate (C57/BL6 male mice [4]; 30 mg/kg i.p.): 0.33
- # of deaths (C57/BL6 male mice [4]; 30 mg/kg i.p.): 2
- # of extensions (C57/BL6 male mice [4]; 30 mg/kg i.p.): 5
- MES-induced death (C57/BL6 male mice [4]; 10 and 30 mg/kg i.p.): dose dependent reduction in MES-induced death
- # L3 per mouse (C57/BL6 male mice [5]; 10 mg/kg i.p.): 2.00 ± 0.58
- # L4 per mouse (C57/BL6 male mice [5]; 10 mg/kg i.p.): 3.85 ± 2.28
- L3 onset time (C57/BL6 male mice [5]; 10 mg/kg i.p.): 2.80 ± 1.00 min
- L3 seizure rate (C57/BL6 male mice [5]; 10 mg/kg i.p.): 0.50
- L4 onset time (C57/BL6 male mice [5]; 10 mg/kg i.p.): 7.90 ± 1.70 min
- L4 seizure rate (C57/BL6 male mice [5]; 10 mg/kg i.p.): 1.00
- Mortality rate (C57/BL6 male mice [5]; 10 mg/kg i.p.): 1.00
- # mice with L3 seizure (C57/BL6 male mice [5]; 10 mg/kg i.p.): 3
- # mice with L4 seizure (C57/BL6 male mice [5]; 10 mg/kg i.p.): 6
- # of deaths within 30 min (C57/BL6 male mice [5]; 10 mg/kg i.p.): 6
- Time to death (C57/BL6 male mice [5]; 10 mg/kg i.p.): 9.60 ± 1.80 min
- # L3 per mouse (C57/BL6 male mice [5]; 30 mg/kg i.p.): 1.67 ± 0.50
- # L4 per mouse (C57/BL6 male mice [5]; 30 mg/kg i.p.): 1.17 ± 0.19
- L3 onset time (C57/BL6 male mice [5]; 30 mg/kg i.p.): 5.10 ± 2.30 min
- L3 seizure rate (C57/BL6 male mice [5]; 30 mg/kg i.p.): 1.00
- L4 onset time (C57/BL6 male mice [5]; 30 mg/kg i.p.): 10.20 ± 3.00 min
- L4 seizure rate (C57/BL6 male mice [5]; 30 mg/kg i.p.): 1.00
- Mortality rate (C57/BL6 male mice [5]; 30 mg/kg i.p.): 0.67
- # mice with L3 seizure (C57/BL6 male mice [5]; 30 mg/kg i.p.): 6
- # mice with L4 seizure (C57/BL6 male mice [5]; 30 mg/kg i.p.): 6
- # of deaths within 30 min (C57/BL6 male mice [5]; 30 mg/kg i.p.): 4
- Time to death (C57/BL6 male mice [5]; 30 mg/kg i.p.): 7.70 ± 2.10 min
- PTZ-induced death (C57/BL6 male mice [5]; 10 and 30 mg/kg i.p., 30 min observation): a certain reduction in PTZ-induced death

Structure (SMILES): C[C@]12N[C@H](Cc3ccccc31)c1ccccc12 [MK-801, reference compound]
- % (Control Wash = 100) [2, 6]: 143%
- Secreted LDH (Avg) [2, 6]: 0.62
- Secreted/(total + secreted) (Avg) [2, 6]: 15.63
- Total LDH (Avg) [2, 6]: 3.34
- % (Control Wash = 100) [2, 7]: 92%
- Secreted LDH (Avg) [2, 7]: 0.18
- Secreted/(total + secreted) (Avg) [2, 7]: 5.43
- Total LDH (Avg) [2, 7]: 3.18
- % (Control Wash = 100) [2, 8]: 241%
- Secreted LDH (Avg) [2, 8]: 0.74
- Secreted/(total + secreted) (Avg) [2, 8]: 17.39
- Total LDH (Avg) [2, 8]: 3.51
- % (Control Wash = 100) [2, 9]: 125%
- Secreted LDH (Avg) [2, 9]: 0.43
- Secreted/(total + secreted) (Avg) [2, 9]: 10.39
- Total LDH (Avg) [2, 9]: 3.71
- % (Control Wash = 100) [2, 10]: 96%
- Secreted LDH (Avg) [2, 10]: 0.36
- Secreted/(total + secreted) (Avg) [2, 10]: 11.04
- Total LDH (Avg) [2, 10]: 2.90
- hyperactivity (side effect) (C57/BL6 male mice [3]; 1 mg/kg i.p.): observed
- inhibition of the peak amplitude of NMDA evoked currents (NMDA receptor; 100 nM): 58±9.4%
- Extension rate (C57/BL6 male mice [4]; 0.5 mg/kg i.p.): 0.50
- Mortality rate (C57/BL6 male mice [4]; 0.5 mg/kg i.p.): 0.50
- MES-induced death (C57/BL6 male mice [4]; 0.5 mg/kg i.p.): little effect compared to control
- # of deaths (C57/BL6 male mice [4]; 0.5 mg/kg i.p.): 3
- # of extensions (C57/BL6 male mice [4]; 0.5 mg/kg i.p.): 3
- Mortality rate (C57/BL6 male mice [5]; 1.0 mg/kg i.p.): 0
- PTZ-induced death (C57/BL6 male mice [5]; 1 mg/kg i.p.): full protection
- # of deaths within 30 min (C57/BL6 male mice [5]; 1.0 mg/kg i.p.): 0
